Test results from patent US11827628B2, “Compositions and methods for inhibition of the JAK pathway” (Rigel Pharmaceuticals, Inc., priority 2005, dated 2023).
Read-outs that look alike come from different tables or passages of the source.

Tests used:
[1] = system: up-regulation of ICAM-1 (CD54) by IFNγ in U937 human monocytic cells; assay: U937 IFNγ ICAM1 FACS Assay; type: cell-based; conditions: U937 cells stimulated with IFNγ, ICAM-1 expression by FACS, read-out: IC50, Example 44
In short: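 U937 cells in 10% FCS RPMI were preincubated 30 min at 37 °C with an 8-point, 3-fold compound dilution series in duplicate, then stimulated with IFNγ for 18–24 h. Surface ICAM-1 was stained with APC anti-ICAM-1 and read by flow cytometry as geometric mean on live-gated cells. EC50 was derived.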

[2] = system: IL-4 stimulated expression of CD23 in human Ramos B cells (JAK-1 and JAK-3); assay: Assay for Ramos B-Cell Line Stimulated with IL-4 (CD23 upregulation, FACS); type: cell-based; conditions: Ramos B-cell line stimulated with IL-4, CD23 expression by FACS, read-out: IC50, Example 41
In short: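 Compound effect on IL-4-driven JAK1/JAK3 signalling is gauged as CD23 surface expression, measured by FACS after 20-24 h of stimulation with IL-4 at 50 units/mL final. A 1 h compound pre-treatment at 37 °C precedes stimulation, and IC50 is derived from the results.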

Compound | IC50 [1] | IC50 [2] | IC50 ([1]; sodium Salt) | IC50 ([2]; sodium salt)
COc1cc(Nc2ncc(F)c(Nc3ccc(OC(C)C#N)c(C)c3)n2)ccc1S(N)(=O)=O (racemic) [Compound I-64, Racemic N2-(4-Aminosulfonyl-3-methoxy)phenyl-N4-[4-(1-cyano)ethoxy-3-methyl]phenyl-5-fluoro-2,4-pyrimidinediamine] | 1150 nM | 113 nM | – | –
CNS(=O)(=O)c1cc(Nc2ncc(F)c(NCCc3ccc(-c4ccncc4)cc3)n2)ccc1C [III-78, 5-Fluoro-N2-[3-N-(methyl)aminosulfonyl-4-methylphenyl]-N4-[4-(4-pyridinyl)phenethyl]-2,4-pyrimidinediamine] | 22900 nM | 275 nM | – | –
Cc1cc(Nc2nc(Nc3ccc(F)c(S(N)(=O)=O)c3)ncc2F)ccc1OCC#N [Compound I-34, N2-(3-Aminosulfonyl-4-fluoro)phenyl-N4-(4-cyanomethoxy-3-methyl)phenyl-5-fluoro-2,4-pyrimidinediamine] | 1050 nM | 62.3 nM | – | –
Cc1ccc(Nc2ncc(F)c(Nc3cccc(OCC(N)=O)c3)n2)cc1S(N)(=O)=O [Compound I-90, N4-(3-Aminocarbonylmethoxy)phenyl-N2-(3-aminosulfonyl-4-methyl)phenyl-5-fluoro-2,4-pyrimidinediamine] | 6160 nM | 401 nM | – | –
CNS(=O)(=O)c1cc(Nc2ncc(F)c(Nc3ccc(Cc4ccncc4)cc3)n2)ccc1C [III-75, 5-Fluoro-N2-[3-(N-methylaminosulfony)-4-methylphenyl]-5-fluoro-N4-[4-(4-pyridinylmethyl)phenyl]-2,4-pyrimidinediamine] | 1770 nM | 170 nM | – | –
CCC(=O)NS(=O)(=O)c1cccc(Nc2ncc(F)c(Nc3ccc(OCc4nc(C)no4)cc3)n2)c1 [Compound I-273] | – | – | 5100 nM | 478 nM
Cc1cc(Nc2nc(Nc3ccc(S(N)(=O)=O)cc3)ncc2F)ccc1OC(C)C#N (racemic) [Compound I-60, Racemic N2-(4-Aminosulfonyl)phenyl-N4-[4-(1-cyano)ethoxy-3-methyl]phenyl-5-fluoro-2,4-pyrimidinediamine] | 848 nM | 103 nM | – | –
Cc1ccc(Nc2ncc(F)c(Nc3ccc(OCC#N)c(Cl)c3)n2)cc1S(N)(=O)=O [Compound I-43, N2-(3-Aminosulfonyl-4-methylphenyl)-N4-(3-chloro-4-cyanomethoxypheny)-5-fluoro-2,4-pyrimidinediamine] | 771 nM | 18.3 nM | – | –

The remaining molecules from weak to strong by IC50 [1], led by results:

IC50 [1] | IC50 [2] | IC50 ([1]; sodium Salt) | IC50 ([2]; sodium salt) | Compound
691 nM | 169 nM | – | – | Cc1cc(Nc2nc(Nc3ccc(S(N)(=O)=O)cc3)ncc2F)cc(C)c1OC(C)C#N (racemic) [Compound I-63, Racemic N2-(4-Aminosulfonyl)phenyl-N4-[4-(1-cyano)ethoxy-3,5-dimethyl]phenyl-5-fluoro-2,4-pyrimidinediamine]
689 nM | 103 nM | – | – | CC(C#N)Oc1ccc(Nc2nc(Nc3ccc(S(N)(=O)=O)cc3)ncc2F)cc1 (racemic) [Compound I-66, Racemic N2-(4-Aminosulfonyl)phenyl-N4-[4-(1-cyano)ethoxy]phenyl-5-fluoro-2,4-pyrimidinediamine]
384 nM | 61.4 nM | – | – | COc1cc(Nc2ncc(F)c(Nc3ccc(OC(C)C#N)cc3)n2)ccc1S(N)(=O)=O (racemic) [Compound I-70, Racemic N2-(4-Aminosulfonyl-3-methoxy)phenyl-N4-[4-(1-cyano)ethoxy]phenyl-5-fluoro-2,4-pyrimidinediamine]
316 nM | 96.5 nM | – | – | CC(C#N)Oc1ccc(Nc2nc(Nc3cccc(S(N)(=O)=O)c3)ncc2F)cc1 (racemic) [Compound I-65, Racemic N2-(3-Aminosulfonyl)phenyl-N4-[4-(1-cyano)ethoxy]phenyl-5-fluoro-2,4-pyrimidinediamine]
140 nM | 21.6 nM | – | – | Cc1cnc(Nc2ccc(S(N)(=O)=O)cc2)nc1Nc1ccc(OCC#N)cc1 [Compound I-57, N2-(4-Aminosulfonylphenyl)-N4-(4-cyanomethoxyphenyl-5)-methyl-2,4-pyrimidinediamine]
